Like-named read-outs stand apart in the source and are kept apart here.
Experiments:
src protein kinase = target: T1, src protein kinase (Gallus gallus, UniProt P00523); assay: Biochemical SRC assay (phosphorylation of biotinylated peptide); details: read-out: bio src IC50
T1 construct: host or cells: Schizosaccharomyces pombe SP200
Protocol: This assay is used to determine src protein kinase activity measuring phosphorylation of a biotinylated peptide as the readout.
Yeast transformed with src (Sugen, Inc., Redwood City, Calif.). • b. Cell lysates: Yeast cells expressing src are pelleted, washed once with water, re-pelleted and stored at −80° C. until use. • c. N-terminus biotinylated [sequence] is prepared by standard procedures well known to those skilled in the art. • d. DMSO: Sigma, St. Louis, Mo. • e. […] Vecastain ELITE ABC reagent: Vector, Burlingame, Calif. • h. […] S. Pombe strain SP200 (h-s leul.32 ura4 ade210) is grown as described and transformations are pRSP expression plasmids are done by the lithium acetate method (Superti-Furga, supra). Cells are grown in the presence of 1 μM thiamine to repress expression from the nmtl promoter or in the absence of thiamine to induce expression. • i. […] Turbo TMB-ELISA peroxidase substrate: Pierce Chemical.
Buffer Solutions • a. PBS (Dulbecco's Phosphate-Buffered Saline): GIBCO PBS, GIBCO Cat. #450-1300EB. • b. Blocking Buffer: 5% Non-fat milk (Carnation) in PBS. • c. Carbonate Buffer: Na2CO4 from Fischer, Cat. # S495, make up 100 mM stock solution. • d. Kinase Buffer: 1.0 ml (from 1M stock solution) MgCl2, 0.2 ml (from a 1M stock solution) MnCl2, 0.2 ml (from a 1M stock solution) DTT, 5.0 ml (from a 1M stock solution) HEPES, 0.1 ml TX-100, bring to 10 ml total volume with MilliQ H2O. • e. […] NaCl: Fischer Cat. # S271-10, Make up 5M stock solution with MilliQ H2O. • i. […] MgCl2: Fischer Cat. # M33-500, make up 1M stock solution with MilliQ H2O. • k. […] MnCl2: Fischer Cat. # M87-100, make up 1M stock solution with MilliQ H2O. • n. DTT: -Fischer Cat. # BP172-5. • o. […] Kinase Reaction Mixture: Amount per assay plate (100 wells): 1.0 ml Kinase Buffer, 200 λg GST-ζ, bring to final volume of 8.0 ml with MilliQ H2O. • q. […] Then add 1 drop of reagent B. Put tube on orbital shaker at room temperature and mix for 30 minutes.
Preparation of src Coated ELISA Plate. • 1. Coat ELISA plate with 0.5 μg/well anti-src mab in 100 μl of pH 9.6 sodium carbonate buffer, hold at 40° C. overnight. • 2. Wash wells once with PBS. • 3. […] Wash plate 5× with PBS. • 5. Add 10 μg/well of src transformed yeast lysates diluted in Lysis Buffer (0.1 ml total volume per well). (Amount of lysate may vary between batches.) Shake plate for 20 minutes at room temperature.
Preparation of Phosphotyrosine Antibody-coated ELISA Plate. • 1. 4G10 plate: coat 0.5 μg/well 4G10 in 100 μl PBS overnight at 4° C. and block with 150 μl of 5% milk in PBS for 30 minutes at room temperature.
Kinase Assay Procedure. • 1. Remove unbound proteins from plates and wash plates 5× with PBS. • 2. […] Wash plate 5× with TBST. • 10. Incubate with Vectastain ELITE ABC reagent (100 μl/well) for 30 min. at room temperature. • 11. Wash the wells 5× with TBST. • 12. Develop with Turbo TMB.

[1] = target: T2, 3T3 cell line genetically engineered to express human PDGF-R (Homo sapiens, UniProt P09619); assay: PDGF-induced BrdU incorporation assay; type: cell-based
T2 construct: expressed in transfected cells; host or cells: 3T3
Protocol: The general procedure is as follows: a compound is introduced to cells expressing the test kinase, either naturally or recombinantly, for a selected period of time after which, if the test kinase is a receptor, a ligand known to activate the receptor is added. […] The cellular/biologic assays described herein measure the amount of DNA made in response to activation of a test kinase, which is a general measure of a proliferative response. The general procedure for this assay is as follows: a compound is introduced to cells expressing the test kinase, either naturally or recombinantly, for a selected period of time after which, if the test kinase is a receptor, a ligand known to activate the receptor is added. After incubation at least overnight, a DNA labeling reagent such as Bromodeoxyuridine (BrdU) or 3H-thymidine is added. The amount of labeled DNA is detected with either an anti-BrdU antibody or by measuring radioactivity and is compared to control cells not contacted with a test compound.
PDGF-Induced BrdU Incorporation Assay
Protocol • (1) Cells are seeded at 8000 cells/well in DMEM, 10% CS, 2mM Gln in a 96 well plate. […] The negative control wells receive serum free DMEM with 0.1% BSA only, the positive control cells receive the ligand (PDGF) but no test compound. […] FixDenat solution is added (50 μ/well) and the plates are incubated at room temperature for 45 minutes on a plate shaker. • (6) The FixDenat solution is thoroughly removed by decanting and tapping the inverted plate on a paper towel. Milk is added (5% dehydrated milk in PBS, 200 μ/well) as a blocking solution and the plate is incubated for 30 minutes at room temperature on a plate shaker. • (7) The blocking solution is removed by decanting and the wells are washed once with PBS. Anti-BrdU-POD solution (1:100 dilution in PBS, 1% BSA) is added (100 μl/well) and the plate is incubated for 90 minutes at room temperature on a plate shaker. • (8) The antibody conjugate is thoroughly removed by decanting and rinsing the wells 5 times with PBS, and the plate is dried by inverting and tapping on a paper towel. • (9) TMB substrate solution is added (100 μl/well) and incubated for 20 minutes at room temperature on a plate shaker until color development is sufficient for photometric detection. • (10) The absorbance of the samples are measured at 410 nm (in “dual wavelength” mode with a filter reading at 490 nm, as a reference wavelength) on a Dynatech ELISA plate reader.

EGFR = EGFR (Homo sapiens, UniProt P00533); assay: EGFR assay (cellular ELISA, NIH 3T3/C7 cells); type: cell-based; set-up: expressed in transfected cells; host or cells: NIH 3T3/C7; details: read-out: cell EGF IC50
Sequence of EGFR (P00533 25-1210): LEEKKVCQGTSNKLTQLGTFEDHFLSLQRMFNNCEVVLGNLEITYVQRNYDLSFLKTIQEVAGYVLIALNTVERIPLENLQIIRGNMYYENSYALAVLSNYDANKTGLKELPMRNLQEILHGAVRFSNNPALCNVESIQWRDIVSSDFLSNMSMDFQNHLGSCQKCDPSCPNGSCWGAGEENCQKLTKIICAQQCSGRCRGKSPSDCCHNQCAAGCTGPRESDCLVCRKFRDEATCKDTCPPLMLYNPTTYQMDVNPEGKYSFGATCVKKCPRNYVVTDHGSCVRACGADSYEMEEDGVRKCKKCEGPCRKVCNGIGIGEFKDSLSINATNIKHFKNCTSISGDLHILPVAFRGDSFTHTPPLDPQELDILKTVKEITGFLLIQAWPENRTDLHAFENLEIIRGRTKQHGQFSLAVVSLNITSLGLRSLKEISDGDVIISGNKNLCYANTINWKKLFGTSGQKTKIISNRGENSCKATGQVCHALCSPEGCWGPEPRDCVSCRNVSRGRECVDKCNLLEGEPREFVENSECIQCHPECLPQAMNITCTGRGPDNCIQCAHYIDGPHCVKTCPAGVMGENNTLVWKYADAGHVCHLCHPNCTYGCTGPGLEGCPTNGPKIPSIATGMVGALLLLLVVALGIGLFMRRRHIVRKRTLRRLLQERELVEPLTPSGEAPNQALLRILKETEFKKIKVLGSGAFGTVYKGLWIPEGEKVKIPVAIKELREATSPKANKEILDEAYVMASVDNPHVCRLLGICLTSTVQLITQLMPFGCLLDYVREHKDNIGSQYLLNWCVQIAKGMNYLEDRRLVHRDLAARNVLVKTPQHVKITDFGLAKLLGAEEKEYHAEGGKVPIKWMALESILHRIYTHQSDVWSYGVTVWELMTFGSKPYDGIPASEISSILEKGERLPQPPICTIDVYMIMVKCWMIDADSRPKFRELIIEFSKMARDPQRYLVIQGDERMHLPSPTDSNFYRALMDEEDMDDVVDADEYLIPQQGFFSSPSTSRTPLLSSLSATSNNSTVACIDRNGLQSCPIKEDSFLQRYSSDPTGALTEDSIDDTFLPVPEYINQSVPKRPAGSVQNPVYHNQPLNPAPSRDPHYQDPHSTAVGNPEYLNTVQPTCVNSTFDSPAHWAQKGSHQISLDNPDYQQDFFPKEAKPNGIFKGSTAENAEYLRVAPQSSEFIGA
Summary of the method: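 NIH 3T3/C7 cells expressing human EGFR, serum-starved (0.5% serum) ~40 h, treated with compound (1:200 of 10 mg/ml DMSO stock, 1% DMSO) then stimulated 5 min with 25 nM EGF. Lysate EGFR captured by antibody and phosphotyrosine detected by anti-Ptyr ELISA (OD 410 nm); % inhibition after negative-control subtraction.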

[2] = read-out: PDGF-Induced BrdU Incorp. IC50

Structure (SMILES)	IC50 (src protein kinase)	IC50 [1, 2]	IC50 (EGFR)	IC50 [1]
CN(C)CCCc1c(/C=C2\C(=O)Nc3ccccc32)[nH]c2c1CCCC2 [Example 198, 3-[3-(3-Dimethylaminopropyl)-4,5,6,7-tetrahydro-1H-indol-2-ylmethylene]-1,3-dihydroindol-2-one]	2.34 µM	4.2 µM	> 100 µM	–
O=C(O)CCc1c(/C=C2\C(=O)Nc3ccc(Cl)cc32)[nH]c2c1CCCC2 [Example 191, 3-[2-(5-Chloro-2-oxo-1,2-dihydroindol-3-ylidenemethyl)-4,5,6,7-tetrahydro-1H-indol-3-yl]-propionic acid]	12 µM	1.1 µM	> 100 µM	–
Cc1c[nH]c(C=C2C(=O)Nc3cc(Cl)ccc32)c1CCC(=O)O [Example 219, 3-[2-(6-Chloro-2-oxo-1,2-dihydroindol-3-ylidenemethyl)-4-methyl-1H-pyrrol-3-yl]-propionic acid]	0.08 µM	7.9 µM	> 100 µM	–
Cc1c[nH]c(/C=C2\C(=O)Nc3ccccc32)c1CCC(=O)O [Example 215, 3-[4-Methyl-2-(2-oxo-1,2-dihydroindol-3-ylidenemethyl)-1H-pyrrol-3-yl]-propionic acid]	5.59 µM	–	> 100 µM	20 µM
O=C(O)CCc1c(/C=C2\C(=O)Nc3cc(Cl)ccc32)[nH]c2c1CCCC2 [Example 195, 3-[2-(6-Chloro-2-oxo-1,2-dihydroindol-3-ylidenemethyl)-4,5,6,7-tetrahydro-1H-indol-3-yl]-propionic acid]	0.26 µM	3.7 µM	> 100 µM	–
O=C(CCc1c(/C=C2\C(=O)Nc3ccccc32)[nH]c2c1CCCC2)NCCN1CCOCC1 [Example 202, N-(2-Morpholin-4-ylethyl)-3-[2-(2-oxo-1,2-dihydroindol-3-ylidenemethyl)-4,5,6,7-tetrahydro-1H-indol-3-yl]-propionamide]	> 50 µM	5.2 µM	> 100 µM	–
